Data from US20140113904A1, “TREATMENT OF CANCER WITH TOR KINASE INHIBITORS” (SIGNAL PHARMACEUTICALS, LLC, priority 2012, published 2014).
Where two headings read alike, the source gives them in different places. Blank lines part the entries; values can stand above or below the compound they belong to.

Assays:
[1] = Compound 2 concentrations in plasma by LC-MS/MS; type: in vivo, SCID mice; details: for concentration at 0.5 h / concentration at 1 h / concentration at 3 h / concentration at 6 h / concentration at 10 h / concentration at 24 h / AUC(0-t): female, SCID, mouse, plasma; for concentration at 0.5 h / concentration at 1 h / concentration at 3 h / concentration at 6 h / concentration at 10 h / concentration at 24 h: oral; for AUC(0-t): po
PC3 tumors = experiment: Antitumor activity of Compound 2 in PC3 human prostate cancer xenograft model; type: in vivo, SCID mice; details: for tumor volume reduction vs vehicle: Day 30
S6RP(S235/S236) = experiment: Phospho-S6RP(S235/S236) in PC3 cell lysates, MSD; type: cell-based, human; details: PC3, 1 hour exposure; read-out: p-S6RP(S235/S236) IC50
Description: The direct substrate for TORC1 was 4E-BP 1(T46) and indirect downstream substrate was S6RP(S235/S236). The direct substrate for TORC2 was Akt(S473) and indirect downstream substrates measured were GSK3β(S9) and PRAS40(T246). Additionally, the phosphorylation status of Akt(T308), a phosphorylation site for PDK1 was monitored.
MSD® biomarker detection assays provide a rapid and convenient method for measuring the total and phosphorylated levels of protein targets within a single small volume sample. These assays are available in both single-plex and multiplex formats. In a single-plex assay, an antibody for a specific protein target is coated on one electrode (or spot) per well. […] MSD Read Buffer that provides the appropriate chemical environment for ECL is added and the plate is read using an MSD SECTOR™ Imager. […] The instrument measures intensity of the emitted light to afford a quantitative measure of the amount of phosphorylated Akt or S6RP present in the sample. […]
The assay plate was incubated with 150 μL of MSD Blocker A Solution for 1 hour with shaking at room temperature. […] Then 150 μL of 1×MSD Read Buffer T was added to each well. The plate was read on the SECTOR Imager plate reader. The Excel data was transferred to Activity Base and IC50 values were calculated.
All data was analyzed using XLfit from IDBS. […]

Plasma Compound 2 Concentration (μM) Mean ± SEM ([1]; 0.1 mg/kg single oral dose, 24 h): BLQ | Plasma Concentration (μM) Mean ± SEM ([1]; 2 mg/kg QD, 10 h after last dose): 0.21 ± 0.05 µM | concentration at 0.5 h ([1]; 0.1 mg/kg, Plasma Compound 2 Concentration (μM) Mean ± SEM, 0.1 mg/kg single oral dose): 0.05 µM | concentration at 1 h ([1]; 0.1 mg/kg, Plasma Compound 2 Concentration (μM) Mean ± SEM, 0.1 mg/kg single oral dose, 1 h): 0.04 µM | concentration at 3 h ([1]; 0.1 mg/kg, Plasma Compound 2 Concentration (μM) Mean ± SEM, 0.1 mg/kg single oral dose, 3 h): 0.02 µM | concentration at 6 h ([1]; 0.1 mg/kg, Plasma Compound 2 Concentration (μM) Mean ± SEM, 0.1 mg/kg single oral dose, 6 h): 0.02 µM | concentration at 10 h ([1]; 0.1 mg/kg, Plasma Compound 2 Concentration (μM) Mean ± SEM, 0.1 mg/kg single oral dose, 10 h): 0.01 µM | concentration at 0.5 h ([1]; 0.3 mg/kg, Plasma Compound 2 Concentration (μM) Mean ± SEM, 0.3 mg/kg single oral dose): 0.16 ± 0.03 µM | concentration at 1 h ([1]; 0.3 mg/kg, Plasma Compound 2 Concentration (μM) Mean ± SEM, 0.3 mg/kg single oral dose, 1 h): 0.16 ± 0.01 µM | concentration at 3 h ([1]; 0.3 mg/kg, Plasma Compound 2 Concentration (μM) Mean ± SEM, 0.3 mg/kg single oral dose, 3 h): 0.07 ± 0.01 µM | concentration at 6 h ([1]; 0.3 mg/kg, Plasma Compound 2 Concentration (μM) Mean ± SEM, 0.3 mg/kg single oral dose, 6 h): 0.07 ± 0.01 µM | concentration at 10 h ([1]; 0.3 mg/kg, Plasma Compound 2 Concentration (μM) Mean ± SEM, 0.3 mg/kg single oral dose, 10 h): 0.04 ± 0.01 µM | concentration at 24 h ([1]; 0.3 mg/kg, Plasma Compound 2 Concentration (μM) Mean ± SEM, 0.3 mg/kg single oral dose, 24 h): 0 µM | concentration at 1 h ([1]; 1 mg/kg, 1 mg/kg BID, 1 h after last dose, read-out: Plasma Concentration (μM) Mean ± SEM): 0.73 ± 0.14 µM | concentration at 3 h ([1]; 1 mg/kg, 1 mg/kg BID, 3 h after last dose, read-out: Plasma Concentration (μM) Mean ± SEM): 0.48 ± 0.04 µM | concentration at 6 h ([1]; 1 mg/kg, 1 mg/kg BID, 6 h after last dose, read-out: Plasma Concentration (μM) Mean ± SEM): 0.22 ± 0.04 µM | concentration at 10 h ([1]; 1 mg/kg, 1 mg/kg BID, 10 h after last dose, read-out: Plasma Concentration (μM) Mean ± SEM): 0.11 ± 0.01 µM | concentration at 24 h ([1]; 1 mg/kg, 1 mg/kg BID, 24 h after last dose, read-out: Plasma Concentration (μM) Mean ± SEM): 0.02 µM | concentration at 10 h ([1]; 1 mg/kg, 1 mg/kg single dose, read-out: plasma concentration at which pS6RP and pAKT (S473) were inhibited through 10 hours): 0.12 ± 0.003 µM | concentration at 1 h ([1]; 1 mg/kg, Plasma Compound 2 Concentration (μM) Mean ± SEM, 1 mg/kg single oral dose, 1 h): 0.53 ± 0.02 µM | concentration at 3 h ([1]; 1 mg/kg, Plasma Compound 2 Concentration (μM) Mean ± SEM, 1 mg/kg single oral dose, 3 h): 0.34 ± 0.01 µM | concentration at 6 h ([1]; 1 mg/kg, Plasma Compound 2 Concentration (μM) Mean ± SEM, 1 mg/kg single oral dose, 6 h): 0.13 ± 0.01 µM | concentration at 10 h ([1]; 1 mg/kg, Plasma Compound 2 Concentration (μM) Mean ± SEM, 1 mg/kg single oral dose, 10 h): 0.12 µM | concentration at 24 h ([1]; 1 mg/kg, Plasma Compound 2 Concentration (μM) Mean ± SEM, 1 mg/kg single oral dose, 24 h): 0.005 µM | concentration at 1 h ([1]; 2 mg/kg, 2 mg/kg QD, 1 h after last dose, read-out: Plasma Concentration (μM) Mean ± SEM): 1.02 ± 0.2 µM | concentration at 3 h ([1]; 2 mg/kg, 2 mg/kg QD, 3 h after last dose, read-out: Plasma Concentration (μM) Mean ± SEM): 0.59 ± 0.08 µM | concentration at 6 h ([1]; 2 mg/kg, 2 mg/kg QD, 6 h after last dose, read-out: Plasma Concentration (μM) Mean ± SEM): 0.27 ± 0.08 µM | concentration at 10 h ([1]; 2 mg/kg, 2 mg/kg QD, 10 h after last dose, read-out: Plasma Concentration (μM) Mean ± SEM): 0.21 µM | concentration at 24 h ([1]; 2 mg/kg, 2 mg/kg QD, 24 h after last dose, read-out: Plasma Concentration (μM) Mean ± SEM): 0.02 ± 0.01 µM | concentration at 24 h ([1]; 5 mg/kg, Compound 2 in the plasma, efficacy study, 5 mg/kg QD, 24 hours after the last dose): 0.13 µM | concentration at 1 h ([1]; 10 mg/kg, Plasma Compound 2 Concentration (μM) Mean ± SEM, 10 mg/kg single oral dose, 1 h): 6.78 ± 1.16 µM | concentration at 3 h ([1]; 10 mg/kg, Plasma Compound 2 Concentration (μM) Mean ± SEM, 10 mg/kg single oral dose, 3 h): 5.69 ± 0.96 µM | concentration at 6 h ([1]; 10 mg/kg, Plasma Compound 2 Concentration (μM) Mean ± SEM, 10 mg/kg single oral dose, 6 h): 2.1 ± 0.22 µM | concentration at 10 h ([1]; 10 mg/kg, Plasma Compound 2 Concentration (μM) Mean ± SEM, 10 mg/kg single oral dose, 10 h): 1.18 ± 0.2 µM | concentration at 24 h ([1]; 10 mg/kg, Plasma Compound 2 Concentration (μM) Mean ± SEM, 10 mg/kg single oral dose, 24 h): 0.8 ± 0.09 µM | AUC(0-t) ([1]; 0.5 mg/kg, 0.5 mg/kg BID, after last dose, read-out: total plasma AUC0-10 h): 1.42 µM·h | AUC(0-t) ([1]; 1 mg/kg, 1 mg/kg BID, after last dose, read-out: total plasma AUC0-10 h): 3.27 µM·h | AUC(0-t) ([1]; 1 mg/kg, 1 mg/kg QD (BID/QD study), read-out: total plasma AUC0-24 h): 2.95 µM·h | AUC(0-t) ([1]; 1 mg/kg, 1 mg/kg QD, last day, read-out: total plasma AUC0-24 h): 2.33 µM·h | AUC(0-t) ([1]; 2 mg/kg, 2 mg/kg QD, last day, read-out: total plasma AUC0-24 h): 5.93 µM·h | AUC(0-t) ([1]; 5 mg/kg, 5 mg/kg QD, last day, read-out: total plasma AUC0-24 h): 17 µM·h
Compound: CCN1C(=O)CNc2ncc(-c3ccc(-c4nc[nH]n4)nc3C)nc21 [Compound 2, 1-ethyl-7-(2-methyl-6-(1H-1,2,4-triazol-3-yl)pyridin-3-yl)-3,4-dihydropyrazino[2,3-b]pyrazin-2(1H)-one]
tumor volume reduction vs vehicle (PC3 tumors; 0.5 mg/kg BID): 57% | tumor volume reduction vs vehicle (PC3 tumors; 1 mg/kg BID): 66% | tumor volume reduction vs vehicle (PC3 tumors; 1 mg/kg QD): 55% | tumor inhibition (PC3 tumors; 1 mg/kg QD, Day 30 (BID/QD study)): the same as 0.5 mg/kg BID | tumor volume reduction vs vehicle (PC3 tumors; 2 mg/kg QD): 63% | tumor volume reduction vs vehicle (PC3 tumors; 5 mg/kg QD): 76% | lowest efficacious dose (PC3 tumors; BID, approximately 65% tumor volume inhibition): 1 mg/kg

IC50 (S6RP(S235/S236)): 0.02 µM
Compound: CO[C@H]1CC[C@H](N2C(=O)CNc3ncc(-c4ccc(C(C)(C)O)nc4)nc32)CC1 [Compound 1, 7-(6-(2-hydroxypropan-2-yl)pyridin-3-yl)-1-((1r,4r)-4-methoxycyclohexyl)-3,4-dihydropyrazino-[2,3-b]pyrazin-2(1H)-one]
